Here are results for 46 molecules from patent publication US7504400B2, “MTP inhibiting aryl piperydines or piperazines substituted with 5-membered heterocycles” (Janssen Pharmaceutica N.V., priority 2004, dated 2009).

Where only a bound is given, the exact number is not on record here.

The subject of the test is Secretion of ApoB. Briefly: Quantification of the secretion of ApoB in HepG2 cells. The test is classed as cell-based. Conditions: Homo sapiens, HepG2, 24 h, 24 hours of incubation with test compound, immunoprecipitation of apoB from medium, read-out: pIC50 value (=-log IC50 value), secretion of ApoB (converted). In short, it runs like this: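 At 70% confluency, HepG2 cells in MEM with 10% FCS received compound or DMSO carrier (0.4% final) for 24 h. Secreted apoB in cleared medium immunoprecipitated with sheep anti-apoB then rabbit anti-sheep antibody (24 h each, 8° C); pellet radioactivity counted by liquid scintillation; IC50 expressed as pIC50.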
For orientation: IC50 means the point on the concentration scale where inhibition reaches its midpoint. For `CC(C)n1ncn(-c2ccc(N3CCN(C(C(=O)NCC(F)(F)F)c4ccccc4)CC3)cc2)c1=O` (stereo not shown) [Compound 166], the IC50 was 316 to 3160 nM. As for `Cn1ncn(-c2ccc(N3CCC(C(C(=O)NCc4ccccc4)c4ccccc4)CC3)cc2)c1=O` (stereo not shown) [Compound 167], the IC50 is 316 to 3160 nM. The same measure for `CC(C)n1ncn(-c2ccc(N3CCC(C(C(=O)NCc4ccccc4)c4ccccc4)CC3)cc2)c1=O` (stereo not shown) [Compound 168]: 31.6 to 316 nM.

For the molecule `COC(=O)C(CCN1CCN(c2ccc(-n3cnn(C(C)C)c3=O)cc2)CC1)c1ccccc1` (stereo not shown) [Compound 169], the IC50 was 316 to 3160 nM.

Turning to `CC(C)n1ncn(-c2ccc(N3CCN(C(C(=O)NCC(F)(F)F)c4ccccc4)CC3)nc2)c1=O` (stereo not shown) [Compound 170], the IC50 was 316 to 3160 nM.

`COC(=O)C(c1ccccc1)N1CCC(c2ccc(-n3cnn(C(C)C)c3=O)cc2)CC1` (stereo not shown) [Compound 171]: the IC50 was 31.6 to 316 nM. Regarding `COC(=O)C(c1ccccc1)N1CCN(c2ccc(-n3cnn(C(C)C)c3=O)cc2)CC1` (stereo not shown) [Compound 172], the IC50 was 316 to 3160 nM. In the case of `COC(=O)C(c1ccccc1)(c1ccccc1)N1CCN(c2ccc(-n3cnn(C(C)C)c3=O)cc2)CC1` [Compound 173] it was 31.6 to 316 nM; in that of `CCC(C)n1ncn(-c2ccc(N3CCN(C(C(=O)OC)c4ccccc4)CC3)cc2)c1=O` (stereo not shown) [Compound 174], 31.6 to 316 nM; in that of `CCNC(=O)C(c1ccccc1)N1CCN(c2ccc(-n3cnn(C(C)CC)c3=O)cc2)CC1` (stereo not shown) [Compound 175], 31.6 to 316 nM. The same measure for `CCCC(C(=O)Nc1ccc2c(c1)CCC2)N1CCN(c2ccc(-n3cnn(C(C)C)c3=O)cc2)CC1` (stereo not shown) [Compound 177]: 31.6 to 316 nM; for `CCC(C)n1ncn(-c2ccc(N3CCN(C(C(=O)NCC(F)(F)F)c4ccccc4)CC3)cc2)c1=O` (stereo not shown) [Compound 178]: 31.6 to 316 nM.

Consider `C=CCn1ncn(-c2ccc(N3CCC(C(C(=O)NCc4ccccc4)c4ccccc4)CC3)cc2)c1=O` (stereo not shown) [Compound 180], for which the IC50 is 31.6 to 316 nM.

As to `CC(C)Cn1ncn(-c2ccc(N3CCC(C(C(=O)NCc4ccccc4)c4ccccc4)CC3)cc2)c1=O` (stereo not shown) [Compound 181], the IC50 was 31.6 to 316 nM. In the case of `O=C(NCc1ccccc1)C(c1ccccc1)C1CCN(c2ccc(-n3cnn(CC4CC4)c3=O)cc2)CC1` (stereo not shown) [Compound 182] it was 31.6 to 316 nM. The same measure for `O=C(NCc1ccccc1)C(c1ccccc1)C1CCN(c2ccc(-n3cnn(C/C=C/c4ccccc4)c3=O)cc2)CC1` (stereo not shown) [Compound 183]: 31.6 to 316 nM; for `COc1ccc(NC(=O)C(c2ccccc2)N2CCN(c3ccc(-n4cnn(C(C)C)c4=O)cc3)CC2)c(OC)c1` (stereo not shown) [Compound 184]: 31.6 to 316 nM; for `COc1ccccc1NC(=O)C(c1ccccc1)N1CCN(c2ccc(-n3cnn(C(C)C)c3=O)cc2)CC1` (stereo not shown) [Compound 185]: 316 to 3160 nM. Regarding `CC(C)n1ncn(-c2ccc(N3CCN(C(C(=O)Nc4ccc(F)cc4)c4ccccc4)CC3)cc2)c1=O` (stereo not shown) [Compound 186], the IC50 is 31.6 to 316 nM. The same measure for `CCOC(=O)C(c1ccccc1)N1CCN(c2ccc(-n3ccn(C(C)C)c3=O)cc2)CC1` (stereo not shown) [Compound 189]: 316 to 3160 nM; for `CC(C)n1cnn(-c2ccc(N3CCN(C(C(=O)Nc4ccc5c(c4)CCC5)c4ccccc4)CC3)cc2)c1=O` (stereo not shown) [Compound 191]: 31.6 to 316 nM.

Regarding `COC(=O)c1cccc(NC(=O)C(c2ccccc2)N2CCN(c3ccc(-n4cnn(C(C)C)c4=O)cc3)CC2)c1` (stereo not shown) [Compound 192], the IC50 is 31.6 to 316 nM.

Turning to `COC(=O)c1ccc(CNC(=O)C(c2ccccc2)N2CCN(c3ccc(-n4cnn(C(C)C)c4=O)cc3)CC2)cc1` (stereo not shown) [Compound 196], the IC50 is 316 to 3160 nM. The same measure for `CC(C)n1ncn(-c2ccc(N3CCN(C(C(=O)Nc4ccc5c(c4)-c4ccccc4C5)c4ccccc4)CC3)cc2)c1=O` (stereo not shown) [Compound 197]: 31.6 to 316 nM; for `CC(C)n1ncn(-c2ccc(N3CCN(C(C(=O)Nc4ccc5c(c4)nc(-c4ccccc4)n5C)c4ccccc4)CC3)cc2)c1=O` (stereo not shown) [Compound 199]: 316 to 3160 nM. In the case of `CC(C)n1ncn(-c2ccc(N3CCN(C(C(=O)Nc4ccc5c(c4)OCO5)c4ccccc4)CC3)cc2)c1=O` (stereo not shown) [Compound 200] it was 31.6 to 316 nM; in that of `CC(C)n1ncn(-c2ccc(N3CCN(C(C(=O)Nc4ccc5c(c4)NCC5)c4ccccc4)CC3)cc2)c1=O` (stereo not shown) [Compound 201], 31.6 to 316 nM; in that of `CC(=O)N1CCc2ccc(NC(=O)C(c3ccccc3)N3CCN(c4ccc(-n5cnn(C(C)C)c5=O)cc4)CC3)cc21` (stereo not shown) [Compound 202], 31.6 to 316 nM.

In the case of `CC(C)N1CCN(c2ccc(N3CCN(C(C(=O)Nc4ccc5c(c4)CCC5)c4ccccc4)CC3)cc2)C1=O` (stereo not shown) [Compound 203], the IC50 was below 31.6 nM.

For `COC(=O)C(c1ccccc1)N1CCN(c2ccc(-n3cnn(C(C)c4ccccc4)c3=O)cc2)CC1` (stereo not shown) [Compound 204], the IC50 was 31.6 to 316 nM. The same measure for `CC(C)n1ccn(-c2ccc(N3CCN(C(C(=O)Nc4ccc5c(c4)CCC5)c4ccccc4)CC3)cc2)c1=O` (stereo not shown) [Compound 205]: below 31.6 nM; for `CCOC(=O)c1ccccc1NC(=O)C(c1ccccc1)N1CCN(c2ccc(-n3cnn(C(C)C)c3=O)cc2)CC1` (stereo not shown) [Compound 206]: 31.6 to 316 nM. `CCC(C)n1nc(C)n(-c2ccc(N3CCC(C(C(=O)Nc4ccc5c(c4)CCC5)c4ccccc4)CC3)cc2)c1=O` (stereo not shown) [Compound 207]: the IC50 was below 31.6 nM. In the case of `CC(c1ccccc1)n1ncn(-c2ccc(N3CCN(C(C(=O)Nc4ccc5c(c4)CCC5)c4ccccc4)CC3)cc2)c1=O` (stereo not shown) [Compound 208] it was 316 to 3160 nM.

In the case of `O=C(Nc1ccc2c(c1)CCC2)C(c1ccccc1)C1CCN(c2ccc(-n3nc4ccccn4c3=O)cc2)CC1` (stereo not shown) [Compound 211], the IC50 is below 31.6 nM. In the case of `O=C(Nc1ccc2c(c1)CCC2)C(c1ccccc1)C1CCN(c2ccc(-n3ncn(Cc4ccccc4)c3=O)cc2)CC1` (stereo not shown) [Compound 212] it was below 31.6 nM; in that of `CC(C)n1ncn(-c2ccc(N3CCC(CC(=O)Nc4ccc5c(c4)CCC5)CC3)cc2)c1=O` [Compound 213], 316 to 3160 nM. In the case of `Cc1cc(N2CCN(C(C(=O)Nc3ccc4c(c3)CCC4)c3ccccc3)CC2)ccc1-n1ccn(C(C)C)c1=O` (stereo not shown) [Compound 214] it was below 31.6 nM; in that of `CC(C)n1ncn(-c2ccc(N3CCN(C(C(=O)Nc4ccc5c(c4)CCC5)c4ccccc4)CC3)c(Cl)c2)c1=O` (stereo not shown) [Compound 215], below 31.6 nM; in that of `CC(C)n1ncn(-c2ccc(N3CCN(C(C(=O)Nc4ccc5c(c4)CCC5)c4ccccc4)CC3)c(F)c2)c1=O` (stereo not shown) [Compound 216], 31.6 to 316 nM.

On to `CCOC(=O)C(c1ccccc1)N1CCN(c2ccc(-n3cnn(C(C)C)c3=O)c(C)c2)CC1` (stereo not shown) [Compound 217], for which the IC50 was 31.6 to 316 nM. In the case of `Cc1cc(N2CCN(C(C(=O)Nc3ccc4c(c3)CCC4)c3ccccc3)CC2)ccc1-n1cnn(C(C)C)c1=O` (stereo not shown) [Compound 218] it was below 31.6 nM; in that of `CCOC(=O)C(c1ccccc1)N1CCN(c2ccc(N3CCN(C(C)C)C3=O)c(C)c2)CC1` (stereo not shown) [Compound 219], 316 to 3160 nM; in that of `Cc1cc(N2CCN(C(C(=O)Nc3ccc4c(c3)CCC4)c3ccccc3)CC2)ccc1N1CCN(C(C)C)C1=O` (stereo not shown) [Compound 220], below 31.6 nM. For `CCOC(=O)C(c1ccccc1)N1CCC(c2ccc(-n3ccn(C(C)c4ccccc4)c3=O)cc2)CC1` (stereo not shown) [Compound 221], the IC50 is 31.6 to 316 nM. On to `CCOC(=O)C(c1ccccc1)C1CCN(c2ccc(-n3ccn(C(C)c4ccccc4)c3=O)cc2)CC1` (stereo not shown) [Compound 222], for which the IC50 was 31.6 to 316 nM.
